What all share (format): cell-based
One experiment addresses T1, human TLR9 (Homo sapiens, UniProt Q9NR96).
T1 sequence (Q9NR96 26-1032): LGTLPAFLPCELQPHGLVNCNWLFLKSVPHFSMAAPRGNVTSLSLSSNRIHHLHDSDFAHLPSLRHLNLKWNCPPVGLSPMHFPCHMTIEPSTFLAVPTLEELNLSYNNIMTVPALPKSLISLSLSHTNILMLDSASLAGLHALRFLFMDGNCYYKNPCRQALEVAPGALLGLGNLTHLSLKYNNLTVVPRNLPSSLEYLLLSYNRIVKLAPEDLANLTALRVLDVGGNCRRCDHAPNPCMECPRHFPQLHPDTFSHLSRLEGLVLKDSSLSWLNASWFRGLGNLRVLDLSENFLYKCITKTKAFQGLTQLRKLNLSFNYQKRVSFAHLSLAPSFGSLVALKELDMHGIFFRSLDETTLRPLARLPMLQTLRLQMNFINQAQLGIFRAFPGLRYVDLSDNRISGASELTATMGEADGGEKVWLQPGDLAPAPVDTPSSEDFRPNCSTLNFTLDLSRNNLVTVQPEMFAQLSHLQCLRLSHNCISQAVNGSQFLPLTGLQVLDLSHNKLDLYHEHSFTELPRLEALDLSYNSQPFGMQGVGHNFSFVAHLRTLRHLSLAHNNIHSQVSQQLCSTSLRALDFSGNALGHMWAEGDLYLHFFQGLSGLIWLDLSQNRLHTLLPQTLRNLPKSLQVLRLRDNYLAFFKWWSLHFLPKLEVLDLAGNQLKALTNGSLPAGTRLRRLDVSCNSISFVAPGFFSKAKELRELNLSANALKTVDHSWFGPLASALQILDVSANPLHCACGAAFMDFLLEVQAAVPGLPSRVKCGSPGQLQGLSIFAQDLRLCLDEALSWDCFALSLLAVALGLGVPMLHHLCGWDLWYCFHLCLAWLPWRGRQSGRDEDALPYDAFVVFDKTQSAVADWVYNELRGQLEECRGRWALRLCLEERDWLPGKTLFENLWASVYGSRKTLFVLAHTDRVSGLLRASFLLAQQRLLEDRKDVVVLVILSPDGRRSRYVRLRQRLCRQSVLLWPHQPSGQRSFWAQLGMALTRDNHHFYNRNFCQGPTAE
Kind of experiment: TLR9 inhibition reporter assay (HEK-Blue cells, SEAP reporter). Conditions: HEK-Blue cells overexpressing human TLR9; stimulated with ODN2006 5 nM; 22 hour incubation; SEAP readout. In outline: (§1)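 HEK-Blue cells with an NF-κB/AP-1-driven SEAP reporter were pre-treated 30 min at room temperature with compound (0.05 nM–50 μM), then stimulated with gardiquimod 7.5 μM (TLR7), R848 15.9 μM (TLR8) or ODN2006 5 nM (TLR9). After 22 h at 37 °C, SEAP was read; % inhibition was referenced to agonist+DMSO and known-inhibitor wells.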
(In general: In a reporter assay the amount or activity of a reporter protein is the signal.)

Another experiment addresses T2, human TLR7 (Homo sapiens, UniProt Q9NYK1).
T2 sequence (Q9NYK1 27-1049): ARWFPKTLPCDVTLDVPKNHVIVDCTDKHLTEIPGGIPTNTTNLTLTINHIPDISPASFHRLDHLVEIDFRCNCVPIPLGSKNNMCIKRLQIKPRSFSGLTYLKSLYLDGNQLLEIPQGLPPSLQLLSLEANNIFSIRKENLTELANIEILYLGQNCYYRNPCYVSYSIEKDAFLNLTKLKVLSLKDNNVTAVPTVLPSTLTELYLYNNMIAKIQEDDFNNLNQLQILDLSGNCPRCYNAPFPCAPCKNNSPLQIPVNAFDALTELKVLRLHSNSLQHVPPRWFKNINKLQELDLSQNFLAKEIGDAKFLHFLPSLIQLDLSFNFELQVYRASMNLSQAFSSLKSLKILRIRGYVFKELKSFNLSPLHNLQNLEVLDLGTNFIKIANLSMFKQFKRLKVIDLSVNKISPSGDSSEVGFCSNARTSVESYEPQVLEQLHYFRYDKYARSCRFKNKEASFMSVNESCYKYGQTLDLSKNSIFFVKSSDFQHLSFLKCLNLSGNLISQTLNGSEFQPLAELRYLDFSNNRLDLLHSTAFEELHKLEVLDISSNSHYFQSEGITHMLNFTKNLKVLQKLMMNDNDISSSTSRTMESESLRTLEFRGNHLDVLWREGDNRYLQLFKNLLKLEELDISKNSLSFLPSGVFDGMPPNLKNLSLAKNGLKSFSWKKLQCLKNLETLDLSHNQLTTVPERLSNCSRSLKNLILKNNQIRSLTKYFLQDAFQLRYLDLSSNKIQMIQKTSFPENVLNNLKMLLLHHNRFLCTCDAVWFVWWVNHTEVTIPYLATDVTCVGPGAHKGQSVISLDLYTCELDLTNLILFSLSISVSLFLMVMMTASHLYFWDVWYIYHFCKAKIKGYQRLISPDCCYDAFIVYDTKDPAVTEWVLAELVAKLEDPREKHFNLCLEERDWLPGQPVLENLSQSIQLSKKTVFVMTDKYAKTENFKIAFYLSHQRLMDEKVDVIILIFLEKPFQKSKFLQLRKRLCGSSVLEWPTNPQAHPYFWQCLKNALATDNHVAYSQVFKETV
The experiment is described as follows: TLR7 inhibition reporter assay (HEK-Blue cells, SEAP reporter). As to conditions: HEK-Blue cells overexpressing human TLR7; stimulated with gardiquimod 7.5 μM; 22 hour incubation; SEAP readout. The gist of the method: as §1

The target in the next experiment is T3, human TLR8 (Homo sapiens, UniProt Q9NR97).
T3 sequence (Q9NR97 27-1041): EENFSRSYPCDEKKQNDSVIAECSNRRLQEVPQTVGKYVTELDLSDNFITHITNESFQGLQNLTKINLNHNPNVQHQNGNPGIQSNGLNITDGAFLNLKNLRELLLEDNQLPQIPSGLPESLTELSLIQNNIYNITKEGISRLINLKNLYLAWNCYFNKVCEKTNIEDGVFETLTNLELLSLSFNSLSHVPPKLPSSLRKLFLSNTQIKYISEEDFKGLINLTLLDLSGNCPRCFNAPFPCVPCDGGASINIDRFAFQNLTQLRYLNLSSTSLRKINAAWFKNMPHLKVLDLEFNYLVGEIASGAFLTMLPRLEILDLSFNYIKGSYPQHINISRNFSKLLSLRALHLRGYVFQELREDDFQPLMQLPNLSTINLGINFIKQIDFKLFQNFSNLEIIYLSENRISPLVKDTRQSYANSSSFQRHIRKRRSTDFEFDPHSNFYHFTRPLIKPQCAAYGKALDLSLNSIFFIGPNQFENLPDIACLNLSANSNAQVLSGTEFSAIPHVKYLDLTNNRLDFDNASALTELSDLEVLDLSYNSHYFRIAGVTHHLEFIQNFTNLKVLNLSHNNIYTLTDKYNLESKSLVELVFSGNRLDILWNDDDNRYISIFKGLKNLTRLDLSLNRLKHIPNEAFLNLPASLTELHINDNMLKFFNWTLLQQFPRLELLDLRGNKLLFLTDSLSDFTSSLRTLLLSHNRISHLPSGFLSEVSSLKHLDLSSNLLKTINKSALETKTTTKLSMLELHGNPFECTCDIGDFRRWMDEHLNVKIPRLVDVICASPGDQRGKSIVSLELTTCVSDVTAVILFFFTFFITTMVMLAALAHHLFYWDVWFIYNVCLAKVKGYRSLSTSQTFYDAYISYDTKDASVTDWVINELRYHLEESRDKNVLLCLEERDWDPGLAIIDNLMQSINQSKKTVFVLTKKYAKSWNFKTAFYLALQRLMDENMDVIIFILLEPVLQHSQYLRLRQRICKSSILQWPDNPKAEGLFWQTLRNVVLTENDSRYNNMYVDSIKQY
The experiment is described as follows: TLR8 inhibition reporter assay (HEK-Blue cells, SEAP reporter). Conditions: HEK-Blue cells overexpressing human TLR8; stimulated with R848 15.9 μM; 22 hour incubation; SEAP readout. In outline: as §1

This passage reports IC50 results from patent US12486267B2, “Imidazo[1,2-A]pyridine and [1,2,4]triazolo[1,5-A]pyridine derivatives as TLR9 inhibitors for the treatment of fibrosis” (BRISTOL-MYERS SQUIBB COMPANY, priority 2020, dated 2025).

SMILES strings stand for the structures.

As for `CC(C)N1CCC(N2CCC(c3ccc4nc(-c5ccc(S(C)(=O)=O)cc5)cn4c3F)CC2)CC1` [Example 73, 5-fluoro-6-(1′-isopropyl-[1,4′-bipiperidin]-4-yl)-2-(4-(methylsulfonyl)phenyl) imidazo[1,2-a]pyridine], the IC50 against human TLR9 was 0.106 µM; at human TLR7, greater than 50 µM; against human TLR8, 23 µM.

In the case of `Cc1cc(C2CCN(C3CCN(CC4CC4)CC3)CC2)cn2cc(-c3ccc(S(C)(=O)=O)cc3)nc12` [Example 92, 6-(1′-(cyclopropylmethyl)-[1,4′-bipiperidin]-4-yl)-8-methyl-2-(4-(methylsulfonyl)phenyl)imidazo[1,2-a]pyridine], the IC50 was 0.05 µM against human TLR9, 3.5 µM on human TLR7 and greater than 25 µM against human TLR8.

`COc1ccc(-c2cn3cc(-c4ccc(N5CCN(CC(C)C)CC5)cc4)cc(C)c3n2)cc1OC` [Example 94, 2-(3,4-dimethoxyphenyl)-6-(4-(4-isobutylpiperazin-1-yl)phenyl)-8-methylimidazo[1,2-a]pyridine]: the IC50 at human TLR9 was 0.22 µM; on human TLR7, greater than 50 µM; at human TLR8, greater than 50 µM.

As for `COc1ccc(-c2cn3cc(-c4ccc(N5CCN(CC6CC6)CC5)cc4)cc(C)c3n2)cc1OC` [Example 95, 6-(4-(4-(cyclopropylmethyl)piperazin-1-yl)phenyl)-2-(3,4-dimethoxyphenyl)-8-methylimidazo[1,2-a]pyridine], the values for the IC50 at human TLR9, on human TLR7 and against human TLR8 were 0.531 µM, 1 µM and greater than 50 µM, respectively.

In the case of `COc1ccc(-c2cn3cc(-c4ccc(N5CCN(C(C)C)CC5)cc4)cc(C)c3n2)cc1OC` [Example 96, 2-(3,4-dimethoxyphenyl)-6-(4-(4-isopropylpiperazin-1-yl)phenyl)-8-methylimidazo[1,2-a]pyridine], the IC50 was 0.232 µM against human TLR9, 2.1 µM at human TLR7 and 15 µM at human TLR8.

For `COc1ccc(-c2cn3cc(-c4ccc(N5CCN(C6CCOCC6)CC5)cc4)cc(C)c3n2)cc1OC` [Example 97, 2-(3,4-dimethoxyphenyl)-8-methyl-6-(4-(4-(tetrahydro-2H-pyran-4-yl)piperazin-1-yl)phenyl) imidazo[1,2-a]pyridine], the IC50 is 2.1 µM against human TLR9, greater than 50 µM at human TLR7 and greater than 25 µM at human TLR8.

As for `Cc1cc(-c2ccc(N3CCN(CC(C)C)CC3)cc2)cn2cc(-c3ccc(S(C)(=O)=O)cc3)nc12` [Example 99, 6-(4-(4-isobutylpiperazin-1-yl)phenyl)-8-methyl-2-(4-(methylsulfonyl)phenyl) imidazo[1,2-a]pyridine], the IC50 on human TLR9 was 0.624 µM; against human TLR7, greater than 50 µM; at human TLR8, greater than 50 µM.

In the case of `Cc1cc(-c2ccc(N3CCN(CC4CC4)CC3)cc2)cn2cc(-c3ccc(S(C)(=O)=O)cc3)nc12` [Example 100, 6-(4-(4-(cyclopropylmethyl)piperazin-1-yl)phenyl)-8-methyl-2-(4-(methylsulfonyl)phenyl) imidazo[1,2-a]pyridine], the IC50 at human TLR9 turned out to be 0.329 µM; on human TLR7 it was 13.4 µM; at human TLR8 it was 14.9 µM.

Turning to `Cc1cc(-c2ccc(N3CCN(CC4CCC4)CC3)cc2)cn2cc(-c3ccc(S(C)(=O)=O)cc3)nc12` [Example 101, 6-(4-(4-(cyclobutylmethyl)piperazin-1-yl)phenyl)-8-methyl-2-(4-(methylsulfonyl)phenyl)imidazo[1,2-a]pyridine], the IC50 against human TLR9 came out at 0.803 µM; at human TLR7 it was 18.4 µM; on human TLR8, 14 µM.

Take `Cc1cc(-c2ccc(N3CCN(C4CCC4)CC3)cc2)cn2cc(-c3ccc(S(C)(=O)=O)cc3)nc12` [Example 102, 6-(4-(4-cyclobutylpiperazin-1-yl)phenyl)-8-methyl-2-(4-(methylsulfonyl)phenyl) imidazo[1,2-a]pyridine]: the values for the IC50 at human TLR9, at human TLR7 and against human TLR8 were 0.71 µM, 6.3 µM and 17 µM, respectively.

As for `Cc1cc(-c2ccc(N3CCN(C4COC4)CC3)cc2)cn2cc(-c3ccc(S(C)(=O)=O)cc3)nc12` [Example 103, 8-methyl-2-(4-(methylsulfonyl)phenyl)-6-(4-(4-(oxetan-3-yl)piperazin-1-yl)phenyl)imidazo[1,2-a]pyridine], the IC50 was 9.2 µM against human TLR9, 38.5 µM on human TLR7 and greater than 50 µM at human TLR8.

As to `Cc1cc(-c2ccc(N3CCN(C4CCOCC4)CC3)cc2)cn2cc(-c3ccc(S(C)(=O)=O)cc3)nc12` [Example 104, 8-methyl-2-(4-(methylsulfonyl)phenyl)-6-(4-(4-(tetrahydro-2H-pyran-4-yl)piperazin-1-yl)phenyl)imidazo[1,2-a]pyridine], the IC50 is 0.451 µM on human TLR9, 5.1 µM on human TLR7 and greater than 50 µM against human TLR8.

`CC(C)CN1CCC(N2CCC(c3cc(F)c4nc(-c5ccc(S(C)(=O)=O)cc5)cn4c3)CC2)CC1` [Example 107, 8-fluoro-6-(1′-isobutyl-[1,4′-bipiperidin]-4-yl)-2-(4-(methylsulfonyl)phenyl) imidazo[1,2-a]pyridine]: the IC50 was 0.1 µM against human TLR9, 11 µM at human TLR7 and greater than 50 µM at human TLR8.

Usually IC50 stands for the point on the concentration scale where inhibition reaches its midpoint. Higher therefore signals weaker potency in that assay.
